Results taken from the supplement of paper PMC10307832.

Tests used:
Test in all cases: relative viability (nuclei count vs DMSO), 5 days (fraction); higher = more cells survive
LU99A = system: LU99A
In short: (§1)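 Each reported value is a median over duplicate plates. It expresses relative viability: treated-well nuclei count divided by vehicle-well nuclei count. Lung cancer cell lines in 1536-well plates were dosed by pin tool a day after seeding, alone with one drug or with a fixed anchor-drug dose plus five library-drug doses (not always all listed) in √10 steps, and nuclei were counted after 5 days.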

EPLC-272H = system: EPLC-272H
In short: as §1

NCI-H2085 = system: NCI-H2085
In short: as §1

LC-2-ad = system: LC-2-ad
In short: as §1

NCI-H460 = system: NCI-H460
In short: as §1

NCI-H1793 = system: NCI-H1793
In short: as §1

HCC-78 = system: HCC-78
In short: as §1

SW 900 = system: SW 900
In short: as §1

LXF-289 = system: LXF-289
In short: as §1

NCI-H1915 = system: NCI-H1915
In short: as §1

NCI-H1944 = system: NCI-H1944
In short: as §1

NCI-H1666 = system: NCI-H1666
In short: as §1

SK-LU-1 = system: SK-LU-1
In short: as §1

NCI-H2009 = system: NCI-H2009
In short: as §1

NCI-H358 = system: NCI-H358
In short: as §1

NCI-H2170 = system: NCI-H2170
In short: as §1

HOP-62 = system: HOP-62
In short: as §1

COR-L 105 = system: COR-L 105
In short: as §1

UMC-11 = system: UMC-11
In short: as §1

HCC-366 = system: HCC-366
In short: as §1

A-427 = system: A-427
In short: as §1

In the case of `Nc1ccn([C@@H]2O[C@H](CO)[C@@H](O)[C@@H]2O)c(=O)n1` [Cytarabine] + Cc1cc(Nc2cc(N3CCN(C)CC3)nc(Sc3ccc(NC(=O)C4CC4)cc3)n2)n[nH]1 [Tozasertib] (partner 0.1 µM), the relative viability (LU99A; first compound 0.005 µM) is reported as 0.263, the relative viability (LU99A; first compound 0.01581 µM) is reported as 0.273 and the relative viability (LU99A; first compound 0.05 µM) is reported as 0.275. For the same compound, the relative viability (LU99A; first compound 0.1581 µM) was 0.288, the relative viability (LU99A; first compound 0.5 µM) was 0.281 and the relative viability (EPLC-272H; first compound 0.005 µM) was 0.294. The relative viability (EPLC-272H; first compound 0.01581 µM) was 0.199, the relative viability (EPLC-272H; first compound 0.05 µM) was 0.289 and the relative viability (EPLC-272H; first compound 0.1581 µM) was 0.29. For the same compound, the relative viability (EPLC-272H; first compound 0.5 µM) was 0.261, the relative viability (NCI-H2085; first compound 0.005 µM) was 0.809 and the relative viability (NCI-H2085; first compound 0.01581 µM) was 0.806. It also gave a relative viability (NCI-H2085; first compound 0.05 µM) of 0.844, a relative viability (NCI-H2085; first compound 0.1581 µM) of 0.694 and a relative viability (NCI-H2085; first compound 0.5 µM) of 0.719. It also gave a relative viability (LC-2-ad; first compound 0.005 µM) of 0.415, a relative viability (LC-2-ad; first compound 0.01581 µM) of 0.452 and a relative viability (LC-2-ad; first compound 0.05 µM) of 0.418. The relative viability (LC-2-ad; first compound 0.1581 µM) was 0.39, the relative viability (LC-2-ad; first compound 0.5 µM) was 0.301 and the relative viability (NCI-H460; first compound 0.005 µM) was 0.438. The relative viability (NCI-H460; first compound 0.01581 µM) was 0.362, the relative viability (NCI-H460; first compound 0.05 µM) was 0.196 and the relative viability (NCI-H460; first compound 0.1581 µM) was 0.0434. For the same compound, the relative viability (NCI-H460; first compound 0.5 µM) was 0.0361, the relative viability (NCI-H1793; first compound 0.005 µM) was 0.346 and the relative viability (NCI-H1793; first compound 0.01581 µM) was 0.32. It also gave a relative viability (NCI-H1793; first compound 0.05 µM) of 0.333, a relative viability (NCI-H1793; first compound 0.1581 µM) of 0.291 and a relative viability (NCI-H1793; first compound 0.5 µM) of 0.332. For the same compound, the relative viability (HCC-78; first compound 0.005 µM) was 0.518, the relative viability (HCC-78; first compound 0.01581 µM) was 0.489 and the relative viability (HCC-78; first compound 0.05 µM) was 0.389. The relative viability (HCC-78; first compound 0.1581 µM) was 0.333, the relative viability (HCC-78; first compound 0.5 µM) was 0.253 and the relative viability (SW 900; first compound 0.005 µM) was 0.555. It also gave a relative viability (SW 900; first compound 0.01581 µM) of 0.402, a relative viability (SW 900; first compound 0.05 µM) of 0.287 and a relative viability (SW 900; first compound 0.1581 µM) of 0.233. The relative viability (SW 900; first compound 0.5 µM) was 0.134, the relative viability (LXF-289; first compound 0.005 µM) was 0.244 and the relative viability (LXF-289; first compound 0.01581 µM) was 0.182. The relative viability (LXF-289; first compound 0.05 µM) was 0.13, the relative viability (LXF-289; first compound 0.1581 µM) was 0.0999 and the relative viability (LXF-289; first compound 0.5 µM) was 0.0753. It also gave a relative viability (NCI-H1915; first compound 0.005 µM) of 0.351, a relative viability (NCI-H1915; first compound 0.01581 µM) of 0.472 and a relative viability (NCI-H1915; first compound 0.05 µM) of 0.401. It also gave a relative viability (NCI-H1915; first compound 0.1581 µM) of 0.319, a relative viability (NCI-H1915; first compound 0.5 µM) of 0.32 and a relative viability (NCI-H1944; first compound 0.005 µM) of 0.211. The relative viability (NCI-H1944; first compound 0.01581 µM) was 0.195, the relative viability (NCI-H1944; first compound 0.05 µM) was 0.184 and the relative viability (NCI-H1944; first compound 0.1581 µM) was 0.149. It also gave a relative viability (NCI-H1944; first compound 0.5 µM) of 0.114, a relative viability (NCI-H1666; first compound 0.005 µM) of 0.559 and a relative viability (NCI-H1666; first compound 0.01581 µM) of 0.628. For the same compound, the relative viability (NCI-H1666; first compound 0.05 µM) was 0.469, the relative viability (NCI-H1666; first compound 0.1581 µM) was 0.446 and the relative viability (NCI-H1666; first compound 0.5 µM) was 0.423. The relative viability (SK-LU-1; first compound 0.005 µM) was 0.301, the relative viability (SK-LU-1; first compound 0.01581 µM) was 0.325 and the relative viability (SK-LU-1; first compound 0.05 µM) was 0.279. The relative viability (SK-LU-1; first compound 0.1581 µM) was 0.185, the relative viability (SK-LU-1; first compound 0.5 µM) was 0.189 and the relative viability (NCI-H2009; first compound 0.005 µM) was 0.685. The relative viability (NCI-H2009; first compound 0.01581 µM) was 0.795, the relative viability (NCI-H2009; first compound 0.05 µM) was 0.786 and the relative viability (NCI-H2009; first compound 0.1581 µM) was 0.566. For the same compound, the relative viability (NCI-H2009; first compound 0.5 µM) was 0.308, the relative viability (NCI-H358; first compound 0.005 µM) was 0.102 and the relative viability (NCI-H358; first compound 0.01581 µM) was 0.0922. The relative viability (NCI-H358; first compound 0.05 µM) was 0.1, the relative viability (NCI-H358; first compound 0.1581 µM) was 0.097 and the relative viability (NCI-H358; first compound 0.5 µM) was 0.0847. For the same compound, the relative viability (NCI-H2170; first compound 0.005 µM) was 0.605, the relative viability (NCI-H2170; first compound 0.01581 µM) was 0.5 and the relative viability (NCI-H2170; first compound 0.05 µM) was 0.409. It also gave a relative viability (NCI-H2170; first compound 0.1581 µM) of 0.386, a relative viability (NCI-H2170; first compound 0.5 µM) of 0.26 and a relative viability (HOP-62; first compound 0.005 µM) of 0.251. The relative viability (HOP-62; first compound 0.01581 µM) was 0.259, the relative viability (HOP-62; first compound 0.05 µM) was 0.282 and the relative viability (HOP-62; first compound 0.5 µM) was 0.0966. For the same compound, the relative viability (COR-L 105; first compound 0.005 µM) was 0.305, the relative viability (COR-L 105; first compound 0.01581 µM) was 0.317 and the relative viability (COR-L 105; first compound 0.05 µM) was 0.306. For the same compound, the relative viability (COR-L 105; first compound 0.1581 µM) was 0.319, the relative viability (COR-L 105; first compound 0.5 µM) was 0.334 and the relative viability (UMC-11; first compound 0.005 µM) was 0.261. It also gave a relative viability (UMC-11; first compound 0.01581 µM) of 0.219, a relative viability (UMC-11; first compound 0.05 µM) of 0.222 and a relative viability (UMC-11; first compound 0.1581 µM) of 0.231. The relative viability (UMC-11; first compound 0.5 µM) was 0.2, the relative viability (HCC-366; first compound 0.005 µM) was 0.149 and the relative viability (HCC-366; first compound 0.01581 µM) was 0.119. The relative viability (HCC-366; first compound 0.05 µM) was 0.0834, the relative viability (HCC-366; first compound 0.1581 µM) was 0.0612 and the relative viability (HCC-366; first compound 0.5 µM) was 0.0652. It also gave a relative viability (A-427; first compound 0.005 µM) of 0.232, a relative viability (A-427; first compound 0.01581 µM) of 0.212 and a relative viability (A-427; first compound 0.05 µM) of 0.163. It also gave a relative viability (A-427; first compound 0.1581 µM) of 0.161 and a relative viability (A-427; first compound 0.5 µM) of 0.149.
